In a melting point compilation (Tetko et al.):

SMILES	melting point [°C]
C/C(=N\NC(N)=O)C1=CC[C@]2(C)C3CCC4=C(CCC4(C)C)C3CC[C@H]2C1 (stereo partly drawn)	239
Clc1ccc2scc(CBr)c2c1	129 to 130
CC(=O)Nc1ccccc1-c1onc(-c2ccccc2)c1-c1ccccc1	190
CCCC1OC2CC3C4CCC5=CC(=O)C=CC5(C)C4C(O)CC3(C)C2(C(=O)CO)O1 (stereo not drawn)	226
O=[N+]([O-])OCC(CO[N+](=O)[O-])O[N+](=O)[O-]	14
Cc1ccc(N=Nc2ccc(N(C)C)cc2)cc1	165 to 167
COc1cccc(C2C(C(=O)OC(C)C)=C(C)NC(C)=C2C(=O)OC(C)C)c1O	196
CCOC(C/N=C/c1ccc(/C=N/CC(OCC)OCC)c([N+](=O)[O-])c1)OCC	38
C=O	-92
O[C@@H]1C#CCCCCC#C[C@@H](O)CC1	154
CCCCCCCCSC(=O)Oc1cc(Cl)nnc1-c1ccccc1	27
COC(=O)CC(C)CCC1C(C)(O)CCC2C(C)(C)CCCC21C (stereo not drawn)	68.3 to 71.3
C[C@]12CC[C@@H](O)[C@H](O)[C@@H]1CC[C@@H]1[C@@H]2CC[C@]2(C)C(=O)CC[C@@H]12	233
CCOc1ccc(CCO)cc1	42
O=P(Oc1ccccc1)(Oc1ccccc1)Oc1noc2ccccc12	64 to 68
CC(C)CC1CCCCC1	-95
FCC(F)(F)C(F)F	-82
CC(=O)OC1CC2C(CCC3(C)C(C(C)CCCC(C)C)CCC23)C2(C)CCC(=O)C=C12 (stereo not drawn)	101 to 102
COc1cc(-c2nnc3n2N=C(c2ccccc2)CS3)cc(OC)c1OC	197
COc1cccc(CC(C)=O)c1	258 to 260
COc1ccc(C(=O)/C=C(\C)c2ccc(OC)cc2)cc1	86 to 87

SMILES	melting point [°C]
CCCCc1nc(CO)c(Cl)[nH]1	150 to 152
COc1ccc(C(c2ccc(OC)cc2)C(Cl)(Cl)Cl)cc1	87
OC12CC3CC(CC(C3)C1)C2	240
CCS(=O)(=O)C(C)(C)S(=O)(=O)CC	126
CC(C)C[C@H](N)[C@@H](O)CC(=O)O	209
COc1nc(NC(C)C)nc(NC(C)C)n1	91.5
NC1CCC1	-4
CCOC(=O)c1sc(Br)nc1C	65 to 66
COc1cc(NCc2ccc3nc(N)nc(N)c3c2C)cc(OC)c1OC	216
Sc1c(Cl)c(Cl)c(Cl)c(Cl)c1Cl	232
CC1(C(=O)O)CCC2(C)CCC3(C)C(=CC(=O)C4C5(C)CCC(O)C(C)(C)C5CCC43C)C2C1 (stereo not drawn)	296
COc1cc(N=C=S)c(OC)cc1Cl	84 to 86
COc1ccc(C2CC(=O)c3c(O)cc(OC4OC(COC5OC(C)C(O)C(O)C5O)C(O)C(O)C4O)cc3O2)cc1O (stereo not drawn)	262
CC(CN1CC(=O)NC(=O)C1)N1CC(=O)NC(=O)C1 (stereo not drawn)	238
c1ccc(N2CN(c3ccccc3)CN(c3ccccc3)C2)cc1	191
Nc1cc(-c2ccccc2)no1	109
Clc1ccc2c(c1)oc1c(Cl)c(Cl)cc(Cl)c12	190
CC(C)C1CCC2(C)CC(O)C3(C)CCC12O3 (stereo not drawn)	114
CC(C=CC=C(C)C=CC1=C(C)C(=O)C(O)CC1(C)C)=CC=CC=C(C)C=CC=C(C)C=CC1=C(C)C(=O)C(O)CC1(C)C (stereo not drawn)	182
OC(Cc1ccccc1)c1ccccc1 (stereo not drawn)	67
CNC1CCC2(C)C(CCC3C2CCC2(C)C3CCC2C(C)N(C)C)C1 (stereo not drawn)	172

SMILES	melting point [°C]
CCOC(=O)c1c(NC(=S)Nc2ccc(OC)cc2)sc2c1CCCC2	163 to 165
O=[N+]([O-])c1cc2c(cc1CO)OCO2	123
N#CC#N	-27.9
CCCCCCCCCCCCCCCCCCCCc1ccccc1	44
CCOc1ccc(N)c(N)c1	71.5
O=C(O)c1ccccc1P(c1ccccc1)c1ccccc1	178
COc1ccc(-c2ccccc2)cc1NNC(=O)OC(C)C	122
CCOC(=O)c1c[nH]c(=S)[nH]c1=O	252
O=C(O)C1CCCNC1 (stereo not drawn)	246 to 253
O[C@@H]1CCCC[C@H]1NCc1ccccc1 (relative stereo)	69 to 72
CCOC(=O)c1c(NC(=O)CN2CCN(c3ccccc3)CC2)sc2c1CCCC2	187 to 188
Oc1ccccc1C1CCCC1	34.5
COc1c(Cl)cc([N+](=O)[O-])c(OC)c1C(=O)O	131
CC(=O)Nc1c(Br)cc(Br)cc1C(=O)c1ccccc1	156
c1ccc2cc3c(ccc4cc5ccccc5cc43)cc2c1	257
Clc1ccc2cccc(Cl)c2c1	63.5
Nc1ccc2ccccc2c1N	98.5
O=C(c1ccccc1)c1cccc2ccccc12	76
COc1cc(OC)n2nc(S(=O)(=O)Nc3c(Cl)ccc(C)c3Cl)nc2n1	211
O=C1CCC(=O)N1I	204
CCCCOC(=O)CCC(=O)OCCCC	-29.2

The remaining lines, values ahead:

melting point [°C]	SMILES
107	O=C(Nc1ccc(F)cc1)c1cccc(Oc2cccc(C(F)(F)F)c2)n1
89 to 91	O=[N+]([O-])c1cccnc1N1CCOCC1
195	COc1cc(C=CC(=O)O)ccc1OC(C)=O
238	Cn1c(/C(C#N)=N/Nc2ccc([N+](=O)[O-])cc2)nc2ccccc21
165	FC(F)(F)c1nnc(S)n1-n1cccc1
95	O=C(CCC(O)c1ccccc1)c1ccccc1 (stereo not drawn)
290	Oc1cc(C(F)(F)F)nc2ccc(Br)cc12
90	CC(=O)C(CC(=O)c1ccccc1)C(=O)c1ccccc1 (stereo not drawn)
134	NS(=O)(=O)c1ccc(S(=O)(=O)CCCCO)c(F)c1
242 to 243	C/C(=N\c1cccc(C(=O)O)c1)c1c(O)c2ccccc2n(-c2ccccc2)c1=O
217 to 219	CC(=O)Nc1nn(C(C)=O)c2ncccc12
152	COCCOc1cnc(NS(=O)(=O)c2ccccc2)nc1
116 to 118	COC(=O)C12C=CC(CC1)C1C(=O)OC(=O)C12 (stereo not drawn)
39	OCCn1ccnc1
-68	FC(F)(F)C(F)(Cl)C(F)(Cl)C(F)(F)F (stereo not drawn)
162 to 164	CCC1Oc2ccccc2C(=O)NC1=O (stereo not drawn)
189 to 191	Cc1cc2c(N)cccc2nn1
51	CCOC(=O)C1=NN(c2ccc(Cl)cc2Cl)C(C)(C(=O)OCC)C1 (stereo not drawn)
136	CNC(=O)N(C)c1nnc(C(F)(F)F)s1
161	Clc1ncccc1-c1ccc(Br)nc1

melting point [°C]	SMILES
135 to 137	BrCc1ccc(-c2csnn2)cc1
194	O=[N+]([O-])c1ccc(Nc2ccc(O)cc2)c([N+](=O)[O-])c1
136	COC(=O)c1ccc(O)c(O)c1
150	COc1ccc2c(c1)c(CC(=O)OCC(=O)O)c(C)n2C(=O)c1ccc(Cl)cc1
187 to 190	CN1CCN(c2cccc(C(=O)O)c2)CC1
185	O=C(O)[C@H]1[C@H](C(=O)O)[C@H]2C=C[C@@H]1C2
118	COC(=O)c1ccc2c(c1)CC1(CCC(c3ccc(C(C)(C)C)cc3)CC1)C2 (stereo not drawn)
188	CC1CC2C3CC(F)C4=CC(=O)C=CC4(C)C3C(O)CC2(C)C1C(=O)CO (stereo not drawn)
72	CN1C(=O)CC(c2ccccc2)C1=O (stereo not drawn)
235	CC(=O)Nc1ccc2c(NC(C)=O)c(O)ccc2c1
298	CC1(C)OC2CC(=O)OCC23C1CC(=O)C1(C)C3CCC2(C)C(c3ccoc3)OC(=O)C3OC321 (stereo not drawn)
71	O=S(=O)(Cl)c1cc(Br)ccc1Br
167	O=C(O)/C=C/c1cccc(F)c1
140 to 142	O=C(Nc1cccnc1Cl)c1ccc(F)cc1
134 to 136	CC(=O)Nc1ccc(I)cc1C(F)(F)F
222 to 223	Cc1ccc2sc(C(=O)O)cc2c1
112 to 114	Nc1ccc2nsnc2c1
175 to 177	CC(C)(C)OC(=O)N1CCC(Oc2ccc(C(=O)O)cc2)CC1
141 to 142	O=C(O)/C=C/c1cccc2c(Br)ccc([N+](=O)[O-])c12
101 to 103	O=C(Cl)c1ccc(-c2ccco2)cc1

melting point [°C]	SMILES
120	CCOC(=O)c1sc2nccnc2c1N
107	c1ccc2c(c1)cnc1ccccc12
84 to 88	CC(=O)Nc1cccc(N)c1
176	Cc1cc(C(F)(F)F)n2nc(-c3ccc(Cl)cc3)cc2n1
10	Cc1nccc2ccccc12
163	COc1cc(NC(=S)N(C)C)c(C(c2ccc(C)o2)c2ccc(C)o2)cc1OC
46 to 50	Cc1ccc(F)c(C=O)c1Cl
> 300	NC(=O)NN=CC(=O)c1cc(C(=O)C=NNC(N)=O)cc(C(=O)C=NNC(N)=O)c1
50 to 51	COC(=O)c1sccc1Br
166	O=C(Oc1ccc(O)cc1)c1ccccc1
164 to 166	COc1cc(C=O)cc(Br)c1O
210	N=C1SCCN1CC(=O)c1ccc([N+](=O)[O-])cc1
139	O=C(Cl)c1sc(-c2ccccc2)nc1-c1ccccc1
175 to 177	Cc1nn(-c2ccccc2)nc1C(N)=O
116	NC(=S)c1ccccc1
178	COc1cccc(OC)c1/C=N/n1c(S)nnc1C(F)(F)F
180	Nc1c(S/C=C/Cl)ccc2c1C(=O)c1ccccc1C2=O
19 to 21	O=S(=O)(n1ccnc1)C(F)(F)F
30	O=C=Nc1cc(Cl)ccc1Cl
106	CN(CC(=O)O)C(=O)COC(=O)c1ccccc1
